From the NIST ThermoML archive (doi:10.1021/je900596d)

Conditions: Vibrating tube method

FC(F)=C(F)C(F)(F)F [hexafluoropropene]
Conditions	mass density [kg/m3]
303.28 K, 499 kPa, Fluid (supercritical or subcritical phases)	33.24
303.28 K, 504.3 kPa, Fluid (supercritical or subcritical phases)	33.56
303.28 K, 509.6 kPa, Fluid (supercritical or subcritical phases)	33.97
303.28 K, 514.9 kPa, Fluid (supercritical or subcritical phases)	34.46
303.28 K, 525.4 kPa, Fluid (supercritical or subcritical phases)	35.23
303.28 K, 530.6 kPa, Fluid (supercritical or subcritical phases)	35.69
303.28 K, 535.9 kPa, Fluid (supercritical or subcritical phases)	36.01
303.28 K, 541.1 kPa, Fluid (supercritical or subcritical phases)	36.49
303.28 K, 546.3 kPa, Fluid (supercritical or subcritical phases)	36.92
303.28 K, 551.5 kPa, Fluid (supercritical or subcritical phases)	37.29
303.28 K, 556.7 kPa, Fluid (supercritical or subcritical phases)	37.7
303.28 K, 572.3 kPa, Fluid (supercritical or subcritical phases)	38.97
303.28 K, 577.4 kPa, Fluid (supercritical or subcritical phases)	39.31
303.28 K, 582.5 kPa, Fluid (supercritical or subcritical phases)	39.71
303.28 K, 587.5 kPa, Fluid (supercritical or subcritical phases)	40.14
303.28 K, 597.7 kPa, Fluid (supercritical or subcritical phases)	41.02
303.28 K, 605.4 kPa, Fluid (supercritical or subcritical phases)	41.64
303.28 K, 610.5 kPa, Fluid (supercritical or subcritical phases)	42.03
303.28 K, 615.6 kPa, Fluid (supercritical or subcritical phases)	42.45
303.28 K, 625.6 kPa, Fluid (supercritical or subcritical phases)	43.25
303.28 K, 630.6 kPa, Fluid (supercritical or subcritical phases)	43.67
303.28 K, 635.6 kPa, Fluid (supercritical or subcritical phases)	44.16
303.28 K, 640.7 kPa, Fluid (supercritical or subcritical phases)	44.51
303.28 K, 650.7 kPa, Fluid (supercritical or subcritical phases)	45.35
303.28 K, 655.6 kPa, Fluid (supercritical or subcritical phases)	45.82
303.28 K, 660.6 kPa, Fluid (supercritical or subcritical phases)	46.19
303.28 K, 665.5 kPa, Fluid (supercritical or subcritical phases)	46.57
303.28 K, 670.5 kPa, Fluid (supercritical or subcritical phases)	47.07
303.28 K, 675.4 kPa, Fluid (supercritical or subcritical phases)	47.49
303.28 K, 680.3 kPa, Fluid (supercritical or subcritical phases)	47.87
303.28 K, 685.2 kPa, Fluid (supercritical or subcritical phases)	48.24
303.28 K, 690 kPa, Fluid (supercritical or subcritical phases)	48.67
303.28 K, 694.8 kPa, Fluid (supercritical or subcritical phases)	49.19
303.28 K, 709.3 kPa, Fluid (supercritical or subcritical phases)	50.39
303.28 K, 714.1 kPa, Fluid (supercritical or subcritical phases)	50.86
303.28 K, 718.9 kPa, Fluid (supercritical or subcritical phases)	51.33
303.28 K, 723.7 kPa, Fluid (supercritical or subcritical phases)	51.66
303.28 K, 728.6 kPa, Fluid (supercritical or subcritical phases)	52.22
303.28 K, 734.4 kPa, Fluid (supercritical or subcritical phases)	52.63
303.28 K, 746.1 kPa, Fluid (supercritical or subcritical phases)	53.68
303.28 K, 750.9 kPa, Fluid (supercritical or subcritical phases)	54.09
303.28 K, 756.7 kPa, Fluid (supercritical or subcritical phases)	54.65
303.28 K, 768.4 kPa, Fluid (supercritical or subcritical phases)	55.74
303.28 K, 774.1 kPa, Fluid (supercritical or subcritical phases)	56.3
303.28 K, 779.9 kPa, Fluid (supercritical or subcritical phases)	56.84
303.28 K, 785.6 kPa, Fluid (supercritical or subcritical phases)	57.36
303.28 K, 791.2 kPa, Fluid (supercritical or subcritical phases)	57.85
303.28 K, 796.9 kPa, Fluid (supercritical or subcritical phases)	58.41
303.28 K, 802.6 kPa, Fluid (supercritical or subcritical phases)	58.95
303.28 K, 808.2 kPa, Fluid (supercritical or subcritical phases)	59.58
303.28 K, 813.9 kPa, Fluid (supercritical or subcritical phases)	60.04
303.28 K, 823.6 kPa, Fluid (supercritical or subcritical phases)	61.02
303.28 K, 828.8 kPa, Fluid (supercritical or subcritical phases)	61.46
303.28 K, 838 kPa, Fluid (supercritical or subcritical phases)	62.51
303.28 K, 841.4 kPa, Fluid (supercritical or subcritical phases)	62.82
303.28 K, 842 kPa, Fluid (supercritical or subcritical phases)	62.87
303.28 K, 842.4 kPa, Fluid (supercritical or subcritical phases)	62.98
303.28 K, 843.8 kPa, Fluid (supercritical or subcritical phases)	63.1
303.28 K, 844.7 kPa, Fluid (supercritical or subcritical phases)	63.37
303.28 K, 845.6 kPa, Fluid (supercritical or subcritical phases)	63.62
303.28 K, 846.3 kPa, Fluid (supercritical or subcritical phases)	63.97
303.28 K, 846.8 kPa, Fluid (supercritical or subcritical phases)	64.22
303.28 K, 847.7 kPa, Fluid (supercritical or subcritical phases)	64.87
303.28 K, 848.2 kPa, Fluid (supercritical or subcritical phases)	65.17
303.36 K, 851.7 kPa, Liquid	1288.08
303.36 K, 854.5 kPa, Liquid	1288.17
303.36 K, 856.9 kPa, Liquid	1288.04
303.36 K, 858.9 kPa, Liquid	1288.19
303.36 K, 870 kPa, Liquid	1288.22
303.36 K, 873.5 kPa, Liquid	1288.36
303.36 K, 880.9 kPa, Liquid	1288.43
303.36 K, 885.8 kPa, Liquid	1288.43
303.36 K, 887.7 kPa, Liquid	1288.47
303.36 K, 903 kPa, Liquid	1288.59
303.36 K, 908.2 kPa, Liquid	1288.61
303.36 K, 911.2 kPa, Liquid	1288.78
303.36 K, 918.3 kPa, Liquid	1288.76
303.36 K, 927 kPa, Liquid	1288.93
303.36 K, 935.5 kPa, Liquid	1288.99
303.36 K, 940.8 kPa, Liquid	1288.91
303.36 K, 943.4 kPa, Liquid	1289.1
303.36 K, 946.1 kPa, Liquid	1289.23
303.36 K, 954.6 kPa, Liquid	1289.18
303.36 K, 959.8 kPa, Liquid	1289.24
303.36 K, 965.5 kPa, Liquid	1289.39
303.36 K, 974 kPa, Liquid	1289.46
303.36 K, 983.2 kPa, Liquid	1289.54
303.36 K, 988.8 kPa, Liquid	1289.67
303.36 K, 995.6 kPa, Liquid	1289.74
303.36 K, 1001.4 kPa, Liquid	1289.81
303.36 K, 1006.1 kPa, Liquid	1289.98
303.36 K, 1016.7 kPa, Liquid	1289.99
303.36 K, 1021.3 kPa, Liquid	1290
303.36 K, 1025.8 kPa, Liquid	1290.01
303.36 K, 1030.5 kPa, Liquid	1290.08
303.36 K, 1045.7 kPa, Liquid	1290.29
303.36 K, 1063.4 kPa, Liquid	1290.5
303.36 K, 1068.6 kPa, Liquid	1290.58
303.36 K, 1082.5 kPa, Liquid	1290.71
303.36 K, 1095.4 kPa, Liquid	1290.76
303.36 K, 1106.3 kPa, Liquid	1291.06
303.36 K, 1118.1 kPa, Liquid	1291.22
303.36 K, 1152.1 kPa, Liquid	1291.56
303.36 K, 1163 kPa, Liquid	1291.61
303.36 K, 1174.7 kPa, Liquid	1291.89
303.36 K, 1188.2 kPa, Liquid	1292.04
303.36 K, 1203.3 kPa, Liquid	1292.26
303.36 K, 1216 kPa, Liquid	1292.23
303.36 K, 1235 kPa, Liquid	1292.43
303.36 K, 1249 kPa, Liquid	1292.78
303.36 K, 1261.3 kPa, Liquid	1292.76
303.36 K, 1289 kPa, Liquid	1293.23
303.36 K, 1305.6 kPa, Liquid	1293.27
303.36 K, 1340.2 kPa, Liquid	1293.72
303.36 K, 1361.8 kPa, Liquid	1293.94
303.36 K, 1383.4 kPa, Liquid	1294.19
303.36 K, 1404.6 kPa, Liquid	1294.41
303.36 K, 1448.9 kPa, Liquid	1294.92
303.36 K, 1483.7 kPa, Liquid	1295.38
303.36 K, 1495.8 kPa, Liquid	1295.69
303.36 K, 1517.4 kPa, Liquid	1295.82
303.36 K, 1540.3 kPa, Liquid	1296.17
303.36 K, 1561.5 kPa, Liquid	1296.23
303.36 K, 1582.1 kPa, Liquid	1296.56
303.36 K, 1615.7 kPa, Liquid	1296.92
303.36 K, 1637.2 kPa, Liquid	1297.09
303.36 K, 1659.1 kPa, Liquid	1297.43
303.36 K, 1680.6 kPa, Liquid	1297.48
303.36 K, 1726.5 kPa, Liquid	1298.26
303.36 K, 1771 kPa, Liquid	1298.55
303.36 K, 1793.6 kPa, Liquid	1298.76
303.36 K, 1815.1 kPa, Liquid	1299.1
303.36 K, 1837.5 kPa, Liquid	1299.36
303.36 K, 1861.7 kPa, Liquid	1299.58
